Measurements from paper PMC10283505, “CVM-1118 (foslinanib), a 2-phenyl-4-quinolone derivative, promotes apoptosis and inhibits vasculogenic mimicry via targeting TRAP1” (Pathology and Oncology Research, 2023).

Legend:
TRAP1 = biological target: T1, TRAP1 (Homo sapiens, UniProt Q12931); test: Western blot of TRAP1 protein level; assay type: cell-based; design: purchased Abcam ab123775
T1 sequence (Q12931 60-704): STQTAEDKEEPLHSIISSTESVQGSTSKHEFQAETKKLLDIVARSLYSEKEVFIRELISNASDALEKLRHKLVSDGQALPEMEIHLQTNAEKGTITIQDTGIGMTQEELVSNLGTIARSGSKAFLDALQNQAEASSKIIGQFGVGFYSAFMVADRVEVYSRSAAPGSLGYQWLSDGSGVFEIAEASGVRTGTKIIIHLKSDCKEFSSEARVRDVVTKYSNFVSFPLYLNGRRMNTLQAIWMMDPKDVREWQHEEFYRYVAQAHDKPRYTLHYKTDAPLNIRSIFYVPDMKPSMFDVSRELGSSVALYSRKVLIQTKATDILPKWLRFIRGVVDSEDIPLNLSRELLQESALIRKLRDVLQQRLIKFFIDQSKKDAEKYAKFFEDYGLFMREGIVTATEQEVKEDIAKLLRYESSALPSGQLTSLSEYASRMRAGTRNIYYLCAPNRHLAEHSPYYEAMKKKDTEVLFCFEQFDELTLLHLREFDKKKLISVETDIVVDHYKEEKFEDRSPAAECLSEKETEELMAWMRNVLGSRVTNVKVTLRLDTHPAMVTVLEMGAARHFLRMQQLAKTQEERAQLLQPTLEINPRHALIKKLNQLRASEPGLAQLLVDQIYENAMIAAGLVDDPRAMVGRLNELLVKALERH
Description: The methods for detecting TRAP1 proteins were as follows: 4 × 10^5 SKOV-3 cells and 8 × 10^5 COLO-205 cells were seeded onto 6-well plates. After 18 h, the culture medium was changed to contain 50, 100, 200, and 400 nM CVM-1125, and samples were recovered for analysis at 24 or 48 h. To explore the pathway of CVM-1125 degradation of TRAP1 protein, the experimental design was as follows: 1 × 10^6 COLO-205 cells were seeded onto 6-well plates. After 18 h, the culture medium was changed to contain 200 nM CVM-1125, 25 µM chloroquine (CQ), and 2.5 µM MG132, and samples were recovered for analysis at 24 h. Cells at 80% confluence were collected with trypsin, centrifuged, and harvested by PBS into a sample buffer (1M Tris pH 6.8, 50% Glycerol, 10% SDS, 1% bromophenol blue, and 2-mercaptoethanol). Cell lysates were heated at 95°C for 10 min and loaded onto 10% SDS-PAGE. Proteins separated on the gel were transferred to a 0.45 μM PVDF membrane (Merk Milipore, IPVH00010) at 4°C overnight and was then blocked at room temperature with 5% skim milk for 30 min. The primary antibodies were diluted with 5% skim milk in PBS for β-actin (Sigma, A5441, 1:20,000) and TRAP1 (Santa Cruz, sc-13557, 1:100) and incubated for 2 h at room temperature. […]

Integrin β4 = Integrin β4 (Homo sapiens, UniProt P16144); test: Surface plasmon resonance (Biacore); assay type: binding; details: Integrin β4, SPR
Nucleolin = Nucleolin (Homo sapiens, UniProt P19338); test: Surface plasmon resonance (Biacore); assay type: binding; details: SPR
A498 = test: NCI 60 cytotoxicity screening; assay type: cell-based; details: Homo sapiens; A498, Renal
[1] = test system: human melanoma (C8161) cells; test: In vitro VM assay (3D Matrigel tubular network); assay type: cell-based; details: 24 h
Description: Aggressive human melanoma (C8161) cells were seeded at 1.0 × 10^5 onto 3D polymerized LDEV-free Matrigel (75 μL; 14 mg/ml; Corning Cat. No. 356232) for VM analysis in 12-well dishes containing no drug or various concentrations of CVM-1118. Matrigel-coated dishes were photographed for tubular network formation after 24 h.

[2] = test system: HT-29 colorectal adenocarcinoma cells; test: Flow cytometry cell cycle analysis (PI); assay type: cell-based, human; details: 48 h
Description: This assay was conducted by ProQinase GmbH (Freiburg, Germany). HT-29 colorectal adenocarcinoma cells were seeded at 150,000 cells/well in 6-well cell culture plates in 5 mL complete medium and incubated at 37°C overnight. On the day of the assay, CVM-1118 at various concentrations or 0.1% DMSO were added to the cells. After 48 h incubation, cells were harvested including the supernatant, fixed in 80% methanol, and stored at −20°C overnight. The next day, cells were rehydrated in PBS for 30 min and treated with RNAse A (100 μg/mL) and propidium iodide (PI) (25 μg/mL). Cell cycle distribution was analyzed by flow cytometry (FACSCalibur, BD Biosciences), assessing approximately 10,000 events. Detection of DNA intercalated with PI was done by fluorescence detector FL3, in which amplification was set in such a manner that the first amplitude peak of the FL3 signal (FL3-A) in untreated cells (corresponding to the G1 cell population) was found at approximately 200 units. For analysis, events were plotted as histogram. The peak at ∼200 units was defined as cells in G1, events below the G1-peak were considered apoptotic cells (sub-G1), and events at ∼400 units as G2/M cells. All signals in between 200 and 400 units were defined as cells in S-Phase, and those beyond 400 units as endoreduplicated cells (endoR).

Chain of Nucleolin (P19338 whole entry): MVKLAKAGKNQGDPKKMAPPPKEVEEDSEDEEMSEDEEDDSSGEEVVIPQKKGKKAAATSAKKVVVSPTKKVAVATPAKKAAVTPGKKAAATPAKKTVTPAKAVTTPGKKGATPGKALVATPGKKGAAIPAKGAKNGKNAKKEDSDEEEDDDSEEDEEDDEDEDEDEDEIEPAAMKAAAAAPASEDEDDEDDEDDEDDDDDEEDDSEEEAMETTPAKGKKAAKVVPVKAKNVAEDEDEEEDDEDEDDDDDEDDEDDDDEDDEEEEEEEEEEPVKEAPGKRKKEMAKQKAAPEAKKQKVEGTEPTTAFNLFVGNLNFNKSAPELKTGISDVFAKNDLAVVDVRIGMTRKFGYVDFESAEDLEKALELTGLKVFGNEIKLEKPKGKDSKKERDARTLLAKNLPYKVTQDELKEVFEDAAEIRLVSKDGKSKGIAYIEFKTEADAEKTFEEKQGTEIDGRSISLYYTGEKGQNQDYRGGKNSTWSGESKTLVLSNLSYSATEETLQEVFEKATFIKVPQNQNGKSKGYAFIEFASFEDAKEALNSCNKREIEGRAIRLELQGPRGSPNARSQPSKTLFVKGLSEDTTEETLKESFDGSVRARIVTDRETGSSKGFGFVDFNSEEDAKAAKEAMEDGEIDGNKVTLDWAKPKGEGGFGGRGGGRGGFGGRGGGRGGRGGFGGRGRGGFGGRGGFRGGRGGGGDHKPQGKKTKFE
Chain of Integrin β4 (P16144 28-1822): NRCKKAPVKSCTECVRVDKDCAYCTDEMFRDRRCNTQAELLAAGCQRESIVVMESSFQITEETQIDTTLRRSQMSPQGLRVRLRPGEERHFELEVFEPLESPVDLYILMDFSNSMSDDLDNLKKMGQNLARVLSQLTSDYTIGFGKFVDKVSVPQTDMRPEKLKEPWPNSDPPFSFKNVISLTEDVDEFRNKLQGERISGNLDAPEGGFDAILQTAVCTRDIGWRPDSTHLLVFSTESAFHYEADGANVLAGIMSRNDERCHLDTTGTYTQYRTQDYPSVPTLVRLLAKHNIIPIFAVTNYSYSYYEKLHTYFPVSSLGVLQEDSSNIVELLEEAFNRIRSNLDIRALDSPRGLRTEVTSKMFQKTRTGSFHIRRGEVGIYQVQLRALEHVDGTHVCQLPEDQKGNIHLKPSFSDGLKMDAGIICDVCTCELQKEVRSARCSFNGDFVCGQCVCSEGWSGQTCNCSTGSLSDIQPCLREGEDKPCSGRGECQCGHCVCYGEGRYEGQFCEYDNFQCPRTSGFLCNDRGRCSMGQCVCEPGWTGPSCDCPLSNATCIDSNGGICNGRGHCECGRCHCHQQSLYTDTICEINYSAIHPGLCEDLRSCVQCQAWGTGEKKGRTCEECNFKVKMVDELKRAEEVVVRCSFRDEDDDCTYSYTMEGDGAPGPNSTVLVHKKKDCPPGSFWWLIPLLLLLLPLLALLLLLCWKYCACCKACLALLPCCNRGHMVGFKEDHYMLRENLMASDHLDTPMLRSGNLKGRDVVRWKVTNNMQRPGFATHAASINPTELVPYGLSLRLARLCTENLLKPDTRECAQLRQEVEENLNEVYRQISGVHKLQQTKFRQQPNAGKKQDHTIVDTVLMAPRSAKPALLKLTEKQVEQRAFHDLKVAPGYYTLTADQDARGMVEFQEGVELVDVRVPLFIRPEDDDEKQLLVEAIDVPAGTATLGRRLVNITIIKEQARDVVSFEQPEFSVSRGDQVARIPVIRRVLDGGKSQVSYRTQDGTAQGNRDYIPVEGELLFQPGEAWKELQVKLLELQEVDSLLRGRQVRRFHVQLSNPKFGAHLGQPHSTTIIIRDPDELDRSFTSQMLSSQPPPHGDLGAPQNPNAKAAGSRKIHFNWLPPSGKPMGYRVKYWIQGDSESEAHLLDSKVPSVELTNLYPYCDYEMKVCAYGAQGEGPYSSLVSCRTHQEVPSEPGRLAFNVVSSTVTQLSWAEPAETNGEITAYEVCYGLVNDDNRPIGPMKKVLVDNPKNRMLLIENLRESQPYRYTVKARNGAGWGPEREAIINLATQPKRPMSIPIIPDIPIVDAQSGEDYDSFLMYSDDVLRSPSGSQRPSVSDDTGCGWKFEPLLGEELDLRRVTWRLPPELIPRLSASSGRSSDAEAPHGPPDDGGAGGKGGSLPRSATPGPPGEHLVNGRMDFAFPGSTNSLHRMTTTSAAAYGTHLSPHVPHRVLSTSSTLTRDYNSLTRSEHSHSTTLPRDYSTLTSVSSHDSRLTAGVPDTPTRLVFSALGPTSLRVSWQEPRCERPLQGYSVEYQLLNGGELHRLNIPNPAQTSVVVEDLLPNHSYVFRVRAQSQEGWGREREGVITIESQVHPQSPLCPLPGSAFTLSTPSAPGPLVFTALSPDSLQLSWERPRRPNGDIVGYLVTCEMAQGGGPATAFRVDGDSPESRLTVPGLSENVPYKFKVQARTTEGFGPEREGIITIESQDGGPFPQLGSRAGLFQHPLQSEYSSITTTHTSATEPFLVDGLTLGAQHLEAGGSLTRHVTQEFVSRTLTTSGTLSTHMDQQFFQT

With `COc1ccc2[nH]c(-c3cccc(F)c3)cc(=O)c2c1O` [CVM-1125] the TRAP1 protein levels (TRAP1; COLO205, 50–400 nM) was “reduced with increasing concentrations”, the TRAP1 protein levels (TRAP1; SKOV3, 50–400 nM) was “reduced with increasing concentrations” and the “Association (ka)” value (Integrin β4) was “No dose dependent interaction”. For the same molecule, the “Dissociation (kd)” value (Integrin β4) was “No dose dependent interaction”, the “KD (kd/ka)” value (Integrin β4) was “No dose dependent interaction” and the “Dissociation (kd)” value (Nucleolin) was 0.0122 s⁻¹. The kon (Nucleolin; read-out: Association (ka)) was 13500 M⁻¹ s⁻¹, the Kd (Nucleolin; read-out: KD (kd/ka)) was 906 nM and the GI50 (A498) was 24.8 nM.
For `COc1ccc2[nH]c(-c3cccc(F)c3)cc(=O)c2c1OP(=O)(O)O` [CVM-1118], the “VM (in vitro) tubular network formation” value ([1]; C8161, 5 nM) was “disrupted”, the “VM (in vitro) tubular network formation” value ([1]; C8161, 10 nM) was “significantly inhibited” and the “VM (in vitro) tubular network formation” value ([1]; C8161, 50 nM) was “significantly inhibited”. The “Cell cycle profile, EndoR” value ([2]; HT-29, 10 nM) was 1.28%, the “Cell cycle profile, G1 phase” value ([2]; HT-29, 10 nM) was 49.34% and the “Cell cycle profile, G2/M phase” value ([2]; HT-29, 10 nM) was 25.66%. For the same molecule, the “Cell cycle profile, S phase” value ([2]; HT-29, 10 nM) was 23.02%, the “Cell cycle profile, Sub-G1” value ([2]; HT-29, 10 nM) was 1.24% and the “Cell cycle profile, EndoR” value ([2]; HT-29, 30 nM) was 1.23%. The “Cell cycle profile, G1 phase” value ([2]; HT-29, 30 nM) was 50.63%, the “Cell cycle profile, G2/M phase” value ([2]; HT-29, 30 nM) was 23.71% and the “Cell cycle profile, S phase” value ([2]; HT-29, 30 nM) was 23.30%. For the same molecule, the “Cell cycle profile, Sub-G1” value ([2]; HT-29, 30 nM) was 1.44%, the “Cell cycle profile, EndoR” value ([2]; HT-29, 100 nM) was 2.84% and the “Cell cycle profile, G1 phase” value ([2]; HT-29, 100 nM) was 16.27%. The “Cell cycle profile, G2/M phase” value ([2]; HT-29, 100 nM) was 43.42%, the “Cell cycle profile, S phase” value ([2]; HT-29, 100 nM) was 10.90% and the “Cell cycle profile, Sub-G1” value ([2]; HT-29, 100 nM) was 26.96%. The “Cell cycle profile, EndoR” value ([2]; HT-29, 300 nM) was 2.45%, the “Cell cycle profile, G1 phase” value ([2]; HT-29, 300 nM) was 1.58% and the “Cell cycle profile, G2/M phase” value ([2]; HT-29, 300 nM) was 50.77%. For the same molecule, the “Cell cycle profile, S phase” value ([2]; HT-29, 300 nM) was 23.63% and the “Cell cycle profile, Sub-G1” value ([2]; HT-29, 300 nM) was 22.46%.
